row,Compound,melting point [°C]
1,OCCc1c[nH]c2cc(-c3cc(Nc4ccc(N5CCOCC5)cn4)c4nccn4c3)ccc12,159 to 161
2,CC(=O)NNC(=O)Nc1ccccc1-c1ccc(C)cc1,102 to 104
3,CNC(=O)c1nc(C)n2c1CN=C(c1ccccc1)c1cc(Cl)ccc1-2,260 to 263
4,Cc1noc(NS(=O)(=O)c2ccc(C(F)(F)F)cc2)c1Br,155 to 158
5,O=[N+]([O-])c1ccc(Cl)c2c(Cl)ccnc12,116 to 118
6,O=C(O)c1ccccc1C(=O)NCCCn1ccnc1,160 to 162
7,CCC(=O)c1c(C)c(NC(=O)CC(C)(C)C)c(C)c2c1OCC2c1ccc(C(C)C)cc1 (stereo not given),163 to 164
8,Cc1cccc2c1N=C(Cl)c1cscc1O2,160 to 161
9,CCCn1c(=O)[nH]c2ccc(C(=O)c3nc(-c4cccc(C(=O)O)c4)c4ccccn34)cc2c1=O,365
10,CC(=O)SCC(Cc1ccccc1)C(=O)Nc1cc(C(=O)O)ccc1N1CCCC1 (stereo not given),217 to 222
11,Cc1ccc(C#N)nc1,72 to 74
12,CCCCCCCCCCCCCCCCCCOc1ccc(OCCCOc2ccc(OCc3ccccc3)cc2)c(C(=O)N(CC(=O)O)CC(=O)O)c1,70 to 74
13,Fc1ccc(-c2nc(S)ncc2CCN2CCC(=Cc3ccccc3F)CC2)cc1,157 to 158
14,CN(C)C=C(C#N)C(=O)Nc1ccc(F)cc1Cl,138 to 139
15,O=C(O)C1=Cc2cc(S(=O)(=O)NCCc3ccccc3)ccc2OC1C(F)(F)F (stereo not given),187 to 190
16,CC(=O)OC1OC(C)C(OCc2ccccc2)C(OCc2ccccc2)C1OCc1ccccc1 (stereo not given),86 to 87.5
17,Cc1ccc(S(=O)(=O)NCC(CC(=O)Nc2ccc(C(=O)O)cc2)c2ccccc2)cc1 (stereo not given),225 to 227
18,Cc1cc2c(cc1C)-n1c(n[nH]c1=O)C=C(c1ccc(-n3c(C)nc4cnccc43)cc1)N2,> 325
19,CCOC(=O)NC(=O)CN(C)C(=O)c1c(F)ccc2c(C(F)(F)F)c(OC)ccc12,130 to 132
20,COC(=O)CCC(=O)c1ccc(-c2ccc(Cl)c(Cl)c2)cc1,120 to 121
21,Cc1ccc(NC(=O)c2ccc(CN3C[C@@H](C)N[C@@H](C)C3)c(Br)c2)cc1Nc1nccc(-c2cccnc2)n1,204 to 205
22,C[C@@H]1[C@H](O)[C@@H](C)C=C(S(=O)(=O)c2ccccc2)[C@@H]2O[C@H]12,118 to 120

row,Compound,melting point [°C]
1,Oc1ccc2c(c1)CN(Cc1ccc(Cl)cc1)CC2,177 to 178
2,COc1ccc(N)c2nccc(Cl)c12,111 to 115
3,CCOC(=O)C(C#N)=C(Nc1ccc(N(CC)CC)cc1)SC,100
4,CCOC(=O)c1cnc2c(OC(F)F)c(F)ccc2c1O,218 to 219
5,CCCOc1ccc(S(=O)(=O)N2CCNCC2)cc1-c1nc2c(CCC)nn(C)c2c(=O)[nH]1,185 to 186
6,Brc1ccc(CC2=NCCN2)c2ccccc12,133 to 135
7,COC(=O)c1cccc(NC(=O)CSC(C)=O)c1,118 to 120
8,[N-]=[N+]=NCCc1ccc(C(=O)O)cc1,130 to 131
9,CC(C)N(C(=O)n1oc(=O)n(Cc2ccccc2)c1=O)c1ccc(F)cc1,95 to 96
10,CC(C)(C)OC(=O)N1CCC(OCc2ccccc2)C1CC(O)Cn1cnc2ccc(F)c(F)c2c1=O (stereo not given),218
11,COC(=O)c1nc(SC(F)(F)F)c(N)nc1N,151 to 155
12,CCOC(=O)c1c(-c2ccccc2Cl)c2cc(CC)ccc2[nH]c1=O,199 to 200
13,CC(=O)c1cccn1[C@@H](Cc1ccc(OCCc2nc(-c3ccccc3)oc2C)cc1)C(=O)O,110 to 112
14,O=C(NCCc1ccccc1)C(F)(F)F,50 to 52
15,COC(=O)C(Cc1ccccc1)NC(=S)Nc1nc(C)cs1 (racemic),131 to 132
16,Clc1ccc(COC(CCCn2ccnc2)c2ccc(Cl)cc2Cl)c(Cl)c1 (stereo not given),108
17,COc1ccc(-c2cc3ncccc3c(O)n2)cc1,295 to 298
18,O=C1c2ccccc2C(=O)N1CC(=O)N1c2ccccc2N(Cc2ccccn2)C(=O)[C@H]2CCC[C@H]21 (relative stereo),227 to 229
19,O=C1C(=O)c2ccccc2C2=C1SCC1(CCC(NC(=O)c3cccc(C(F)(F)F)c3)CC1)O2 (stereo not given),266 to 267
20,CCCCN1C(=O)C2(COc3cc4c(cc32)OCO4)c2ccccc21 (stereo not given),119 to 120
21,CC(=NO)c1ccc2c(c1O)OC(CO)CO2 (stereo not given),162
22,O=S(=O)(O)c1ccc(NCc2ccc(Cl)cc2)cc1,> 270

row,Compound,melting point [°C]
1,Clc1cccc(N2CCN(CCCOc3ccc4cn[nH]c4c3)CC2)c1Cl,159 to 161
2,CC(C)Oc1ccc2c(=O)c3ccc(O)cc3oc2c1,268 to 281
3,CCOC(=O)c1cn(-c2cccc(Oc3ccc(Cl)cc3)c2)cn1,112 to 113
4,O=C(O)c1cccc2c(-c3ccccc3)c([N+](=O)[O-])oc12,271 to 272
5,NC(=O)N(O)CCNC(=O)c1cccc(Oc2ccccn2)c1,159 to 160
6,CCCCCCCCOc1ccc(C(=O)COC(C)=O)cc1,44 to 45
7,CCCCc1cc(C)cc(=O)[nH]1,95
8,CC(=O)Oc1c(C)c(C)c2c(c1C)C(=O)CC(C)(COc1ccc(N)cc1)O2 (stereo not given),177 to 178
9,O=C(O)COc1ccc2c(c1)-c1nc(SCC(c3ccccc3)c3ccccc3)sc1CC2,165 to 167
10,CCCc1c(OCCCSc2ccc(C(=O)CCC(=O)O)c(F)c2)ccc(C(C)=O)c1O,149 to 150
11,Cc1ccc(N(CCN2CCC(C(=O)c3ccc(F)cc3)CC2)C(=O)c2cccc(N)c2)cc1,173 to 175
12,CN1C(=O)C(C)(C)N=C(c2ccccc2F)c2c(Cl)c(N)c(Cl)c(Cl)c21,165 to 166
13,CC(C)(C#N)c1cc(Cn2cnnc2)cc(C(C)(C)C#N)c1,158 to 161
14,CC(C)C(Br)C(=O)Nc1ccccc1O (stereo not given),110 to 111
15,COc1ccc(-c2cc(C(=O)Nc3ccccc3)c(=O)n(CC3CC3)n2)cc1,163
16,Cc1c(C)c2c(c(C)c1OCC=Cc1ccccc1)C(c1ccc(C(C)C)cc1)C(C)(C)O2 (stereo not given),106 to 107
17,CC(C)N(CCn1cc(C(=O)NCc2ccc(Cl)cc2)c(=O)c2cc(C#CCO)ccc21)C(C)C,188 to 191
18,N#CCc1cc(Cl)nc(N)n1,110 to 115
19,FC(F)(F)c1cc(C(F)(F)F)c(-c2ccc(Cl)cc2)[nH]1,41 to 43
20,CCN(CC)OC(C(=O)O)(C(=O)O)c1ccccc1,> 250
21,Cc1oc(-c2ccccc2)nc1COc1ccc(Cn2cc(CCCC(=O)O)c(-c3ccccc3)n2)cc1,118 to 119

# Results, then the compound that gave them:
row,melting point [°C],Compound
1,133 to 135,O=S(=O)(c1ccc(Cl)cc1)C(c1ccncc1)C1CCCC1 (stereo not given)
2,122 to 124,Cc1c(C#N)ccc([N+](=O)[O-])c1C#N
3,95 to 100,Cc1cc(F)ccc1-c1ccc(S(=O)(=O)N2c3ccccc3CC2C(=O)NCc2ccc(CC(=O)O)cc2)cc1 (stereo not given)
4,192 to 193,O=C(O)C1=Cc2cc(Cl)c(Oc3ccc(F)c(F)c3)cc2OC1C(F)(F)F (stereo not given)
5,97 to 98,O=C(CCCCCBr)c1cc2c3c(c1)CCN3C(=O)CC2
6,151 to 154,COc1ccc(O[C@@H]2COc3ccc(-c4ccc5cc(F)ccc5n4)cc3[C@@H]2O)cc1 (relative stereo)
7,134 to 135,COc1ccc(Cl)nc1N
8,114 to 115,CC(C)(C)OC(=O)NC1CCN(Cc2ccccc2)C1 (stereo not given)
9,95 to 97,COc1ccc2c(c1)CC[C@@H]1[C@@H]2CC[C@@]2(C)[C@H]1CCC21CC(O)CO1 (stereo not given in full)
10,160 to 161,CCOC(=O)N(CCNc1ccc2ncc(Br)n2n1)c1ccccc1
11,182 to 184,CCCCOc1ccc2c3c([nH]c2c1)CC(NC(C)=O)CC3 (stereo not given)
12,168 to 170,CC1(C)C2CC[C@]1(C)C(=O)C(C(=O)Nc1ccc([N+](=O)[O-])cc1)C2=O (stereo not given in full)
13,> 300,CC1(C)C(=O)C(C)(C)c2cc3[nH]c(S)nc3cc21
14,100 to 102,Cc1cn(C(C)C(=O)N(C)C)nc1-c1cccs1 (stereo not given)
15,90 to 93,CCCc1c[nH]c(-c2ccc(Cl)cc2)c1-c1ccc(Cl)cc1
16,62 to 63,O=c1n(CCCF)nnn1-c1ccc(Cl)cc1F
17,91 to 94,CC(NC(=O)c1cccc(C2(C)C(=O)Nc3cc(Cl)cc(Cl)c3C2=O)c1)c1ccccc1 (stereo not given)
18,130,FC(F)(F)c1cc(-c2ccccc2)nc(N2CCNCC2)n1

row,melting point [°C],Compound
1,155 to 156,COc1c(N)nc(Cl)nc1Cl
2,138 to 140,COc1cc2nc(Cl)nc(N)c2c(OC)c1OC
3,67 to 84,CCN(CC)c1ccc(N(c2ccc(N(C)C)cc2)C2(c3ccc(N(C)C)cc3Cl)OC(=O)c3ccccc32)cc1 (stereo not given)
4,246 to 249,Cc1cc(=O)n(Cc2ccccc2)c2cc(OCc3nnn[nH]3)cc(OCc3nnn[nH]3)c12
5,45,O=C1CCC(=O)N1CCS
6,190,CCn1c(C)cc(=O)nc1S
7,180 to 182,Cc1cc(=O)n(C(=O)Oc2c(C(=O)c3ccc(Cl)cc3Cl)c(C)nn2C)o1
8,130 to 132,CNc1cccc(F)c1C#N
9,220 to 222,O=C1CCC(N2Cc3c(OCc4ccc(CN5CCC(c6ccccc6)CC5)cc4)cccc3C2=O)C(=O)N1 (stereo not given)
10,113 to 115,COc1ccc(CNc2c(C)c(C)c3c(c2C)C(c2ccccc2)C(C)(C)O3)cc1 (stereo not given)
11,150 to 152,CC(C)(C)C1CCN(CCCC(=O)c2ccc3c(c2)-c2ccc(C(=O)CCCN4CCC(C(C)(C)C)CC4)c4cccc-3c24)CC1
12,72.5 to 73,CCCCCCCCC(=O)Nc1cc([N+](=O)[O-])cc([N+](=O)[O-])c1
13,237,Sc1nnc(-c2cccnc2)o1
14,82 to 84,CC(=O)c1ccc2c(c1)Sc1ccccc1C=C2
15,74 to 75,COc1ccc2[nH]c(C)cc2c1OCc1ccccc1
16,172 to 174,CCOC(=O)CCC1=C(C#N)C(c2ccccc2Cl)c2c[nH]nc2N1 (stereo not given)
17,151 to 153,CCCC(C)(Oc1ccccc1)C(=O)OC1CC(O)C=C2C=CC(C)C(CCC3CC(O)CC(=O)O3)C21 (mixture of isomers)

# Source: a melting point compilation (Tetko et al.; mined from patent text by program, amines drawn as free bases though some values may be those of a salt)
